Measured values from patent US7186862B2, “Microbicidal agents on the basis of biphenylbenzamide derivatives” (Bayer CropScience AG, priority 2002, dated 2007).
Each block holds one compound with its values, some of them ahead of it.

What was measured:
[1] = logP determination by HPLC on reversed-phase column (EEC Directive 79/831); assay type: physicochemical; conditions: 0.1% aqueous phosphoric acid/acetonitrile gradient; for chromatographic logP: reversed-phase HPLC column (C18), pH 2.3, reversed-phase C18, 43° C.; for logP (pH 2.3): reversed-phase C18, 43° C.
Description: The logP values given in the tables and preparation examples above are determined in accordance with EEC Directive 79/831 Annex V.48 by HPLC (High Performance Liquid Chromatography) on a reversed-phase column (C18). Temperature: 43° C. The determination is carried out in the acidic range at pH 2.3 using the mobile phases 0.1% aqueous phosphoric acid and acetonitrile; linear gradient from 10% acetonitrile to 90% acetonitrile. Calibration is carried out using unbranched […] (of 3 to 16 carbon atoms) with known logP values (determination of the logP values by the retention time using linear interpolation between two successive alkanones).

Podosphaera leucotricha = assay: Podosphaera test (apple)/protective; assay type: in vivo; conditions: 240 h, application rate 100 g/ha, apple plants, protective spray, evaluation 10 days after inoculation, 100% = no infection, read-out: Efficacy in %
Description: (§1) [table] To produce a suitable preparation of active compound, 1 part by weight of active compound is mixed with the stated amounts of solvent and emulsifier, and the concentrate is diluted with water to the desired concentration. To test for protective activity, young plants are sprayed with the preparation of active compound at the stated application rate. After the spray coating has dried on, the plants are inoculated with an aqueous spore suspension of the apple mildew pathogen Podosphaera leucotricha. The plants are then placed in a greenhouse at about 23° C. and a relative atmospheric humidity of about 70%. Evaluation is carried out 10 days after the inoculation. 0% means an efficacy which corresponds to that of the control, whereas an efficacy of 100% means that no infection is observed.

Sphaerotheca fuliginea = assay: Sphaerotheca test (cucumber)/protective; assay type: in vivo; conditions: Podosphaera fuliginea, 168 h; application rate 100 g/ha; cucumber plants, protective spray; evaluation 7 days after inoculation; 100% = no infection; read-out: Efficacy in %
Description: as §1, with “of Sphaerotheca fuliginea.” for “of the apple mildew pathogen Podosphaera leucotricha.”, “out 7” for “out 10”

Venturia inaequalis = assay: Venturia test (apple)/protective; assay type: in vivo; conditions: 240 h, application rate 100 g/ha, apple plants, protective spray, evaluation 10 days after inoculation, 100% = no infection, read-out: Efficacy in %
Description: as §1, with “conidia” for “spore”, “scab” for “mildew”, “Venturia inaequalis and then remain in an incubation cabin at about 20° C. and 100% relative atmospheric humidity for 1 day.” for “Podosphaera leucotricha.”, “21°” for “23°”, “90%.” for “70%.”

Alternaria solani = assay: Alternaria test (tomato)/protective; assay type: in vivo; conditions: application rate 750 g/ha; tomato plants, protective spray, inoculation 1 day after treatment; evaluation 7 days after inoculation; 100% = no infection
Description: [table] To produce a suitable p reparation of active compound, 1 part by weight of active compound is mixed with the stated amounts of solvent and emulsifier, and the concentrate is diluted with water to the desired concentration. To test for protective activity, young tomato plants are sprayed with the preparation of active compound at the stated application rate. 1 day after the treatment, the plants are inoculated with a spore suspension of Alternaria solani and are then kept at 100% relative atmospheric humidity and 20° C. for 24 h. The plants are then kept at 96% relative atmospheric humidity and a temperature of 20° C. Evaluation is carried out 7 days after the inoculation. 0% means an efficacy which corresponds to that of the control, whereas an efficacy of 100% means that no infection is observed.

chromatographic logP [1]: 3.73
Compound: O=C(Nc1ccccc1-c1ccc(Cl)cc1)c1ccccc1C(F)(F)F [Compound 1]
pest or weed control at 100 g/ha (Podosphaera leucotricha): 100%
pest or weed control at 100 g/ha (Sphaerotheca fuliginea): 94%
pest or weed control at 100 g/ha (Venturia inaequalis): 97%

chromatographic logP [1]: 4
Compound: O=C(Nc1ccccc1-c1ccc(Cl)cc1Cl)c1ccccc1C(F)(F)F [Compound 2]
pest or weed control at 100 g/ha (Podosphaera leucotricha): 100%
pest or weed control at 100 g/ha (Sphaerotheca fuliginea): 94%

chromatographic logP [1]: 4.14
Compound: Cc1cc(Cl)ccc1-c1ccccc1NC(=O)c1ccccc1C(F)(F)F [Compound 3]
pest or weed control at 100 g/ha (Podosphaera leucotricha): 99%
pest or weed control at 100 g/ha (Sphaerotheca fuliginea): 100%
pest or weed control at 100 g/ha (Venturia inaequalis): 100%

chromatographic logP [1]: 4.03
Compound: O=C(Nc1ccccc1-c1ccc(Br)cc1)c1ccccc1C(F)(F)F [Compound 5]
Efficacy in % (Alternaria solani): 94%

logP (pH 2.3) [1]: 4.05
Compound: O=C(Nc1ccccc1-c1ccc(C(F)(F)F)cc1)c1ccccc1C(F)(F)F [Compound 6]

logP (pH 2.3) [1]: 4.20
Compound: O=C(Nc1ccccc1-c1ccc(OC(F)(F)F)cc1)c1ccccc1C(F)(F)F [Compound 8]

logP (pH 2.3) [1]: 3.89
Compound: CSc1ccc(-c2ccccc2NC(=O)c2ccccc2C(F)(F)F)cc1 [Compound 9]

chromatographic logP [1]: 3.89
Compound: O=C(Nc1ccccc1-c1ccc(Br)cc1)c1ccccc1Cl [Compound 10]
Efficacy in % (Alternaria solani): 92%

logP (pH 2.3) [1]: 3.89
Compound: O=C(Nc1ccccc1-c1ccc(C(F)(F)F)cc1)c1ccccc1Cl [Compound 11]

chromatographic logP [1]: 3.75
Compound: O=C(Nc1ccccc1-c1cccc(Cl)c1)c1ccccc1Cl [Compound 12]
pest or weed control at 100 g/ha (Podosphaera leucotricha): 100%
pest or weed control at 100 g/ha (Venturia inaequalis): 100%

logP (pH 2.3) [1]: 4.08
Compound: O=C(Nc1ccccc1-c1ccc(OC(F)(F)F)cc1)c1ccccc1Cl [Compound 13]

logP (pH 2.3) [1]: 3.75
Compound: CSc1ccc(-c2ccccc2NC(=O)c2ccccc2Cl)cc1 [Compound 14]

logP (pH 2.3) [1]: 3.40
Compound: O=C(Nc1ccccc1-c1ccc(F)cc1)c1ccccc1Cl [Compound 15]

logP (pH 2.3) [1]: 3.91
Compound: O=C(Nc1ccccc1-c1ccc(Br)cc1)c1ccccc1Br [Compound 16]

logP (pH 2.3) [1]: 3.94
Compound: O=C(Nc1ccccc1-c1ccc(C(F)(F)F)cc1)c1ccccc1Br [Compound 17]

chromatographic logP [1]: 3.78
Compound: O=C(Nc1ccccc1-c1cccc(Cl)c1)c1ccccc1Br [Compound 18]
Efficacy in % (Alternaria solani): 100%

logP (pH 2.3) [1]: 4.08
Compound: O=C(Nc1ccccc1-c1ccc(OC(F)(F)F)cc1)c1ccccc1Br [Compound 19]

Compound: CSc1ccc(-c2ccccc2NC(=O)c2ccccc2Br)cc1 [Compound 20]
logP (pH 2.3) [1]: 3.78

logP (pH 2.3) [1]: 3.42
Compound: O=C(Nc1ccccc1-c1ccc(F)cc1)c1ccccc1Br [Compound 21]

logP (pH 2.3) [1]: 3.86
Compound: Cc1ccccc1C(=O)Nc1ccccc1-c1ccc(Br)cc1 [Compound 22]

logP (pH 2.3) [1]: 3.86
Compound: Cc1ccccc1C(=O)Nc1ccccc1-c1ccc(C(F)(F)F)cc1 [Compound 23]

logP (pH 2.3) [1]: 3.72
Compound: Cc1ccccc1C(=O)Nc1ccccc1-c1cccc(Cl)c1 [Compound 24]

logP (pH 2.3) [1]: 4.03
Compound: Cc1ccccc1C(=O)Nc1ccccc1-c1ccc(OC(F)(F)F)cc1 [Compound 25]

logP (pH 2.3) [1]: 3.72
Compound: CSc1ccc(-c2ccccc2NC(=O)c2ccccc2C)cc1 [Compound 26]

logP (pH 2.3) [1]: 4.00
Compound: O=C(Nc1ccccc1-c1ccc(Br)cc1)c1ccccc1I [Compound 27]

logP (pH 2.3) [1]: 4.03
Compound: O=C(Nc1ccccc1-c1ccc(C(F)(F)F)cc1)c1ccccc1I [Compound 28]

logP (pH 2.3) [1]: 3.86
Compound: O=C(Nc1ccccc1-c1cccc(Cl)c1)c1ccccc1I [Compound 29]

logP (pH 2.3) [1]: 4.21
Compound: O=C(Nc1ccccc1-c1ccc(OC(F)(F)F)cc1)c1ccccc1I [Compound 30]

logP (pH 2.3) [1]: 3.86
Compound: CSc1ccc(-c2ccccc2NC(=O)c2ccccc2I)cc1 [Compound 31]

logP (pH 2.3) [1]: 3.55
Compound: O=C(Nc1ccccc1-c1ccc(F)cc1)c1ccccc1I [Compound 32]

chromatographic logP [1]: 3.55
Compound: O=C(Nc1ccccc1-c1ccc(F)c(F)c1)c1ccccc1C(F)(F)F [Compound 33]
pest or weed control at 100 g/ha (Podosphaera leucotricha): 100%
pest or weed control at 100 g/ha (Sphaerotheca fuliginea): 82%
pest or weed control at 100 g/ha (Venturia inaequalis): 100%
Efficacy in % (Alternaria solani): 94%

chromatographic logP [1]: 3.76
Compound: O=C(Nc1ccccc1-c1ccc(Cl)c(F)c1)c1ccccc1C(F)(F)F [Compound 34]
pest or weed control at 100 g/ha (Podosphaera leucotricha): 100%
pest or weed control at 100 g/ha (Sphaerotheca fuliginea): 95%
pest or weed control at 100 g/ha (Venturia inaequalis): 100%

chromatographic logP [1]: 3.81
Compound: O=C(Nc1ccccc1-c1ccc(F)c(Cl)c1)c1ccccc1C(F)(F)F [Compound 35, N-(3′-chloro-4′-fluoro-1,1′-biphenyl-2-yl)-2-(trifluoromethyl)benzamide]
pest or weed control at 100 g/ha (Podosphaera leucotricha): 100%
pest or weed control at 100 g/ha (Sphaerotheca fuliginea): 93%
pest or weed control at 100 g/ha (Venturia inaequalis): 100%

logP (pH 2.3) [1]: 3.41
Compound: O=C(Nc1ccccc1-c1ccc(F)cc1F)c1ccccc1C(F)(F)F [Compound 36]

logP (pH 2.3) [1]: 4.08
Compound: O=C(Nc1ccccc1-c1ccc(OC(F)(F)F)c(F)c1)c1ccccc1C(F)(F)F [Compound 37]

logP (pH 2.3) [1]: 4.18
Compound: O=C(Nc1ccccc1-c1ccc(Cl)c(C(F)(F)F)c1)c1ccccc1C(F)(F)F [Compound 38]

logP (pH 2.3) [1]: 4.18
Compound: Cc1ccc(-c2ccccc2NC(=O)c2ccccc2C(F)(F)F)cc1C(F)(F)F [Compound 39]

logP (pH 2.3) [1]: 4.41
Compound: O=C(Nc1ccccc1-c1ccc(OC(F)(F)F)c(C(F)(F)F)c1)c1ccccc1C(F)(F)F [Compound 40]

chromatographic logP [1]: 3.9
Compound: O=C(Nc1ccccc1-c1ccc(F)c(C(F)(F)F)c1)c1ccccc1C(F)(F)F [Compound 41]
pest or weed control at 100 g/ha (Podosphaera leucotricha): 94%
pest or weed control at 100 g/ha (Sphaerotheca fuliginea): 100%

chromatographic logP [1]: 4.18
Compound: Cc1cc(-c2ccccc2NC(=O)c2ccccc2C(F)(F)F)ccc1Cl [Compound 42, N-(4′-chloro-3′-methyl-1,1′-biphenyl-2-yl)-2-(trifluoromethyl)benzamide]
pest or weed control at 100 g/ha (Podosphaera leucotricha): 100%
pest or weed control at 100 g/ha (Sphaerotheca fuliginea): 100%
pest or weed control at 100 g/ha (Venturia inaequalis): 100%

logP (pH 2.3) [1]: 4.16
Compound: O=C(Nc1ccccc1-c1cc(Cl)cc(Cl)c1)c1ccccc1C(F)(F)F [Compound 43]

logP (pH 2.3) [1]: 4.06
Compound: O=C(Nc1ccccc1-c1ccc(Cl)c(Cl)c1)c1ccccc1I [Compound 44]

logP (pH 2.3) [1]: 3.68
Compound: O=C(Nc1ccccc1-c1ccc(Cl)cc1F)c1ccccc1C(F)(F)F [Compound 45]

logP (pH 2.3) [1]: 3.74
Compound: O=C(Nc1ccccc1-c1ccc(Cl)cc1)c1ccccc1I [Compound 46]

logP (pH 2.3) [1]: 4.11
Compound: O=C(Nc1ccc(F)cc1-c1ccc(Cl)c(Cl)c1)c1ccccc1C(F)(F)F [Compound 47]

logP (pH 2.3) [1]: 3.81
Compound: O=C(Nc1c(F)cccc1-c1ccc(Cl)c(Cl)c1)c1ccccc1C(F)(F)F [Compound 48]

logP (pH 2.3) [1]: 3.64
Compound: O=C(Nc1ccccc1-c1ccc(Cl)cc1)c1ccccc1Cl [Compound 49]

logP (pH 2.3) [1]: 3.66
Compound: O=C(Nc1ccccc1-c1ccc(Cl)cc1)c1ccccc1Br [Compound 50]

chromatographic logP [1]: 2.99
Compound: O=C(Nc1ccccc1Br)c1ccccc1C(F)(F)F [IV-1, N-(2-bromophenyl)-2-(trifluoro-methyl)benzamide]
